Measured values as given in patent US10662225B2, “Backbone cyclized inhibitory peptides of myeloid differentiation factor 88 (MyD88)” (Yissum Research Development Company of the Hebrew …, priority 2016, dated 2020).
Numbered stars: 1 amine (or outer) side, 2 acyl side, 3 side chain; on linkers, the order of the positions; unused ones are H or OH. Bridge positions count the residues as written; N and C are the ends. Square brackets hold non-standard residues; d marks the D form. Ends that are not written are not given here. Peptide text beside a SMILES is read from it. * marks the point of attachment. Myristoyl = CCCCCCCCCCCCCC(=O)*; CO = O=C([*:1])[*:2]; Nlys = NCCCCNCC(=O)O

Assays:
MyD88 = MyD88 (Homo sapiens, UniProt Q99836); experiment: Comparison of linear 7-mer peptide with and without N-terminal myristoyl group (assay not specified); settings: versus linear MyD88 inhibitor 7-mer peptide
Source text: The importance of additional moieties to enhance cell penetration is further evaluated. […] Therefore, backbone cyclic peptides with addition of a myristoyl group or other moieties designed to enhance cell penetration are also synthesized and tested for binding, inhibition, stability and permeability.

NFkB activation = experiment: NFkB-luciferase reporter in RAW 264.7 macrophages stimulated with LPS; assay type: cell-based, mouse; settings: RAW 264.7 NFkB-luc, 4 hours
Description: FIG. 13. 4×4MyDI and Myr4×4MyDI block NFkB induction in response to LPS stimulation of RAW 264.7 NFkB-luc cells. RAW 264.7 murine macrophages were transfected with an NFkB-luciferase reporter gene and stimulated with LPS in the absence or presence of increasing concentrations of the inhibitors. After 4 hours cells were lysed and luminescence was recorded using a Tecan plate reader. BG denotes background.
In this assay the mouse macrophage RAW264.7 cell line is transfected with an NFkB-luciferase reporter construct and then cells are stimulated by exposure to bacterial LPS and light emission is measured after addition of luciferase substrate.

[1] = tested on: OCI-LY3 (MyD88 L265P) cells; experiment: Proliferation of lymphoma cells (Promega CellTiter viability assay); assay type: cell-based, human; settings: 48 h; compared with OCI-LY19 (MyD88 WT)
Description: FIGS. 18A and 18B. 4×4MyDI and Myr-4×4MyDI block proliferation of Ly3 lymphoma cells that carry the L265P oncogenic mutation in MyD88. Cell lines OCI-LY3 (MyD88^L265P) and OCI-LY19 (MyD88^WT) were grown in RPMI supplemented with 10% FCS. Cells were counted and plated at identical concentrations in triplicate wells of 96 well plates and decreasing concentrations of 4×4MyDI […], or Myr-4×4MyDI (19B), was added to the wells. After 48 h cell viability was tested using the Promega CellTiter viability assay according to the manufacturer's instructions. Percent inhibition was calculated as [(1-OD of well with inhibitor/OD of well without inhibitor)*1001. Negative values in A represent enhanced growth in the presence of the inhibitor.
Genomic DNA was prepared from the human lymphoma cell lines OCI-LY3 (MyD88^L265P) and OCI-LY19 (MyD88^WT) to confirm the presence of the activating L265P mutation in the OCI-Ly3 cells (and the WT sequence in the OCI-Ly19 cells). The MyD88 region was amplified using the forward and reverse primers GGGATATGCTGAACTAAGTTGCCAC (SEQ ID NO: 7) and GACGTGTCTGTGAAGTTGGCATCTC (SEQ ID NO: 8), respectively, as described in Xu, L. et al Blood (2013) 121(11): 2051-2058. The PCR product was sequenced to confirm the mutation.
The cell lines were incubated alone or with increasing concentrations of the 4×4MyDI. […]

MyD88 dimerization = target: T1, MyD88 dimerization (Homo sapiens, UniProt Q99836); experiment: Co-immunoprecipitation of Flag-MyD88 with HA-MyD88 in HEK293 cells; assay type: cell-based; settings: HEK293, IL-1 stimulation; 4×4MyDI at 20, 2, 0.2 μM; Myr-4×4MyDI at 0.2 or 2000 nM
T1 construct: constructs encoding HA-tagged full length MyD88 and Flag-tagged full length MyD88; expressed in transfected cells; host or cells: HEK293
Description: FIG. 10. 4×4MyDI blocks MyD88 dimerization. HEK293 cells were transfected with two plasmids, one encoding HA-MyD88 and the other encoding FLAG-MyD88 and after 48 hours the cells were either untreated (cont) or treated with 20 μM of the linear MyDI peptide, the scrambled version of the linear MyDI peptide (SEQ ID NO: 5,), or the 4×4MyDI at 20, 2, or 0.2 μM. After 3 h of treatment, cells were stimulated with recombinant human IL-1 (20 ng/ml) for 30 min and then lysed. Whole cell lysates (WCL) were immunoprecipitated with anti-HA beads (Thermo-Scientific) for 30 min and proteins were eluted with glycine Ph 2.0, neutralized, and loaded on an acrylamide gel for analysis. Proteins were transferred to nitrocellulose and the amount of Flag-MyD88 that co-precipitated with HA-MyD88 was detected by immunoblotting (IB) with anti-Flag antibody.
FIGS. 14A and 14B. […] Proteins were transferred to nitrocellulose and the amount of FLAG-MyD88 that co-precipitated with HA-MyD88 was detected by immunoblotting (IB) with anti-FLAG antibody. […] Percent inhibition of co-immunoprecipitation was calculated by comparing densitometry of bands in the treated lanes to control. […]
TLR and IL-1 receptor signaling proceeds through a multimeric protein signaling complex (the “Myddosome”) that is initiated by MyD88 homodimerization. […] Immunoprecipitated protein was eluted and analyzed by immunoblot using an antibody to Flag. […]

T1 sequence (Q99836 whole entry): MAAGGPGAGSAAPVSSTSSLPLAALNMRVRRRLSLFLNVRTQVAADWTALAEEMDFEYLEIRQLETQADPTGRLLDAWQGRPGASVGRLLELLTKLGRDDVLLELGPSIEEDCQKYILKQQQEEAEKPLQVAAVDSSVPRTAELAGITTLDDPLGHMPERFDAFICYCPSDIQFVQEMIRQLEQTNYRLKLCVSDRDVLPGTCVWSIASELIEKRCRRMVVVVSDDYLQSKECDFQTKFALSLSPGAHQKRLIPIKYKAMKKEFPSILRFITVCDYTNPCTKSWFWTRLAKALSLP
Sequence of MyD88 (Q99836 whole entry, species assumed): as the sequence (Q99836 whole entry) above

| Compound | peptide stability on addition of myristoyl group (MyD88) | block of NFkB activation (NFkB activation) | proliferation of OCI-Ly3 cells [1] | MyD88 dimerization (Flag-MyD88 co-precipitated with HA-MyD88) (MyD88 dimerization) |
| --- | --- | --- | --- | --- |
| CCCCCCCCCCCCCC(=O)N[C@@H](CCCNC(=N)N)C(=O)N[C@@H](CC(=O)O)C(=O)N[C@H](C(=O)N[C@@H](CC(C)C)C(=O)N1CCC[C@H]1C(=O)NCC(=O)N[C@H](C(=O)O)[C@@H](C)O)C(C)C (Myristoyl-RDVLPGT-OH; N-terminus and C-terminus assumed) | without affecting peptide stability | – | – | – |
| Myr-4×4MyDI: 4×4MyDI backbone cyclic peptide with a myristoyl group (formula V) (Myristoyl-[Nlys]RDVL[Nlys]GT; bridge 1-6 via CO) | – | greater activity than the 4×4MyDI | specifically blocked proliferation | at least as active as 4×4MyDI |
